{"source": "patent US20260216205A1", "about": "“SYSTEMS AND METHODS FOR TREATING HEART FAILURE WITH PRESERVED EJECTION FRACTION” (INVIVOSCIENCES INC., priority 2023, published 2026)", "key": {"alpha-1 adrenoceptors": {"tested_on": "alpha-1 adrenoceptors", "details": "read-out: IC50, affinity for alpha-1 adrenoceptors; cited from earlier work"}, "[1]": {"tested_on": "human micro-heart tissues (NuHeart)", "assay": "Mature NuHeart micro-heart tissue with and without TGFβ: length-tension, contractile force, ISO response, αSM actin", "format": "cell-based", "method": "FIG. 11C-11F graphically show length-tension relationships of cardiac systolic ([…]) and diastolic (FIG. 10E, FIG. 10F) curves, monitored>30 days with and without TGFβ (10 ng/mL).\nFIG. 11G is a bar graph illustrating that the positive inotropic response to ISO ([…]) were compared with and without TGFβ (bars=s.d., n=7) at the end of 35-day tissue development.\nFIG. 11I-11J show profiles of cardiac contractile force with and without TGFβ.\nA semi-automated, multi-point quality control (QC) production-process fabricated mature micro-heart tissues in 96-well format. The patient-derived (or gene-edited) iPSCs that were passed the QC test of pluripotency and purity go through the next step. This robust protocol of iPSC differentiation produced cardiomyocytes and non-muscle cells. Various parameters were optimized to produce highly purified (>95%) cardiomyocytes and cardiac non-muscle cells. Various differentiation techniques, a culture robot ACTRO™, and culture media may be used for cardiomyocyte (CM) differentiation and maintenance development and validation. FIGS. 9A-9D show mass-produced micro-heart tissues and their mature phenotype, which were assessed for their response to various positive inotropic and chronotropic agents (FIGS. 10A-10D). To grow mature micro-heart tissue, physiological (15% strain=~2.13 μm sarcomere length) stretching cycles were applied, in addition to constant bi-phasic, low energy (5-10 V, 1 ms duration) electrical stimulation, and maturation medium containing appropriate concentrations and combinations of fatty acids and other factors, including triiodothyronine, dexamethasone, taurine, creatine, and L-carnitine were used.\nHuman micro-heart tissues cultured for 35 days with electrical stimulation matured and loose its spontaneous beating. Myocardial fibrosis is more prevalent in HFpEF than in control, and Transforming growth factor beta (TGFβ) is a major profibrotic factor. […] The elevated diastolic stiffness and loss of contractile reserve are common in HFpEF patients. Some HFpEF patients, including hypertrophic cardiomyopathy, show a hypercontractile phenotype. A TGF-β signaling pathway in the pathogenesis of diabetes mellitus (DM) is well-known. Moreover, in rat models, the presence of diabetes led to the induction of a fetal gene program, typically seen in the setting of TGF-β over-expression and hypertrophy. Therefore, human induced pluripotent stem cell (iPSC) derived micro-heart tissue (NuHeart™ micro-heart tissue) will be used with TGFβ-treatment as a base of the proposed studies.\nA force probe stretching approach was used to record the length-tension relationship to analyze cardiac contractility and stiffness of micro-heart tissue. Micro force-transducers (FIG. 11) of the mechanical assay device, Palpator™, measured resistance forces that were required to stretch micro-heart tissue growing in 96-well plates. As the probe moved down by a motorized arm, samples' cardiac contractile and baseline forces were measured at different tissue lengths. Sarcomere length was calibrated to strain (% of stretch over original sample length) according to a published protocol (Asnes, C. F. et al. Biophys. J. 2006. 91(5): pp. […]). (Fourier analysis of sarcomere patterns in fixed micro-heart tissue). In addition, other biological indicators such as calcium transients and action potential are measured using biological indicator dyes and high throughput microplate readers (FIGS. 13A-C). For example, micro-heart tissue with cardiomyocytes derived from gene-edited iPSC-derived cardiomyocytes was fabricated with a cardiac troponin T R92Q mutation (familial hypertrophic cardiomyopathy, i.e., “[…]”)."}, "[2]": {"tested_on": "human micro-heart tissues (iPSC-derived cardiomyocytes and non-muscle cells, mainly fibroblasts)", "assay": "Biomechanical assay (length-tension) on micro-heart tissue constructs", "format": "cell-based", "details": "for micro-heart tissue construct's stiffness (diastolic/passive stiffness): FIG. 7B", "description": "The micro-heart tissue fabrication process produced micro-heart tissues using human cardiomyocytes derived from induced pluripotent stem cells (iPSCs) and non-muscle cells, mainly fibroblasts. Therefore, fasudil is a promising drug candidate to reduce elevated diastolic stiffness of patients with heart failure with preserved ejection fraction (HFpEF). The development of fibrosis in the heart is observed in various types of cardiomyopathies, and heart failure (HF). Myocardial interstitial fibrosis, for example, contributes to left ventricular dysfunction leading to the development of heart failure. Fibrotic myocardium becomes stiffer than healthy tissue to develop diastolic dysfunction. Fasudil targets Rho-kinase (ROCK) that regulates the activity of non-muscle myosin independent of calcium homeostasis. Human cardiac fibroblasts express ROCK1 and ROCK2, which both regulate non-muscle cell contractility similarly. The reduction of ROCK2 had notable effects on the profibrotic gene (FIGS. 7A-B) and protein expression (FIGS. 7A-B).\nA force probe stretching approach was used to record the length-tension relationship to analyze cardiac contractility and stiffness of micro-heart tissue. Micro force-transducers (FIG. 11) of the mechanical assay device, Palpator™, measured resistance forces that were required to stretch micro-heart tissue growing in 96-well plates. As the probe moved down by a motorized arm, samples' cardiac contractile and baseline forces were measured at different tissue lengths. Sarcomere length was calibrated to strain (% of stretch over original sample length) according to a published protocol (Asnes, C. F. et al. Biophys. J. 2006. 91(5): pp. 1800-1180). (Fourier analysis of sarcomere patterns in fixed micro-heart tissue). In addition, other biological indicators such as calcium transients and action potential are measured using biological indicator dyes and high throughput microplate readers (FIGS. 13A-C). […]"}, "[3]": {"tested_on": "engineered heart tissues (EHTs) derived from human induced pluripotent stem cells", "assay": "Long-term fasudil effects on engineered heart tissues (EHTs) with and without TGFβ, stress versus strain", "format": "cell-based", "method": "FIGS. 16A-16D graphically illustrate the long-term effects of fasudil. The rates of stretch relative to the unstretched tissue length are depicted as strain (error bar=standard deviation of error). Number of samples are 2 or 4 in each condition.\nTo exemplify this patient stratification process, engineered heart tissues (EHTs) were prepared, the tissues containing cardiac fibroblasts (10% of cardiomyocytes at fabrication) derived from human induced pluripotent stem cells (iPSCs). Five days post-fabrication, one half of the engineered heart tissues (EHTs) was cultured regularly (FIG. 16A and FIG. 16C), and the other half was treated with 1 ng/mL TGFβ (FIG. 16B and FIG. 16D). […] The effect was clearly represented in the elevated passive stress-strain curve and its slope represented by the closed circles (0 μM fasudil data points) in FIG. 16C and FIG. 16D.\nAfter 15 days, the EHTs, both with and without TGFβ treatment, were administered fasudil at concentrations of […] (FIGS. 16A-16D). […] However, by day 29, fasudil reduced cardiac contractility in EHTs, irrespective of TGFβ treatment."}, "[4]": {"tested_on": "engineered heart tissues (EHTs) derived from human induced pluripotent stem cells", "assay": "Long-term fasudil effects on engineered heart tissues (EHTs) with and without TGFβ, stress versus strain", "format": "cell-based", "details": "short-term administration (less than 24 hours)"}, "[5]": {"tested_on": "tissue constructs reconstituted with human fibroblasts / myofibroblasts", "assay": "Biomechanical phenotyping assay: isometric force on stretched bioengineered tissue constructs", "format": "cell-based", "description": "Fasudil (FIG. 1) is a small molecule inhibitor of Rho-kinase (ROCK) that regulates its downstream signal transduction pathways and biological activities, including smooth muscle cells' contractility. InvivoSciences's biomechanical phenotyping assay recorded isometric force by stretching bioengineered tissue-constructs (see, U.S. Pat. No. 10,732,174). The tissue constructs were reconstituted with human fibroblasts that recapitulate connective tissues. Those tissue constructs reconstituted with myofibroblasts recapitulate connective tissue developing fibrosis."}, "[6]": {"details": "intravenous formulations; Satoh et al., Life Sci 2001; cited from earlier work"}, "[7]": {"details": "NuHeart micro-heart tissue without TGFβ"}, "[8]": {"details": "long-term administration (3-14 days)"}, "[9]": {"details": "TGFβ-treated micro-heart (10 ng/mL, monitored >30 days)"}}, "note": "“Also recorded” adds a separate entry of the source."}
{"compound": "CN1CCN(C2=Nc3cc(F)ccc3Cc3ccccc32)CC1", "note": "[Fluperlapine]", "values": [{"measurement": "IC50", "setting": "alpha-1 adrenoceptors", "value": "~10", "unit": "nM"}]}
{"compound": "CC(C)NCC(O)c1ccc(O)c(O)c1", "note": "(stereo not shown) [ISO, isoproterenol]", "values": [{"measurement": "contractile amplitude", "setting": "[1]; [7]", "value": "increased"}, {"measurement": "duration of contraction (chrotropic response)", "setting": "[1]; [7]", "value": "shortened"}, {"measurement": "response of mature micro-heart tissues", "setting": "[1]; after isoproterenol (ISO) treatment", "value": "positive inotropic and chronotropic responses"}, {"measurement": "response of contractile force to ISO", "setting": "[1]; micro-heart tissue with TGFβ", "value": "blunted response"}]}
{"compound": "O=S(=O)(c1cccc2cnccc12)N1CCCNCC1", "note": "[fasudil, Fasudil]", "values": [{"measurement": "cardiac contractility of the micro-heart tissues", "setting": "[2]; FIG. 7A", "value": "did not change"}, {"measurement": "micro-heart tissue construct's stiffness (diastolic/passive stiffness)", "setting": "[2]", "value": "reduced the micro-heart tissue construct's stiffness dose-dependently"}, {"measurement": "micro-heart tissue construct's stiffness (diastolic/passive stiffness)", "setting": "[2]; listed as Fasudil", "value": "reduced"}, {"measurement": "cardiac contractility in TGFβ-treated EHTs", "setting": "[3]; 10 μM fasudil, by day 29", "value": "substantially reduce"}, {"measurement": "effect on passive stiffness, TGFβ-treated tissues versus untreated", "setting": "[3]; TGFβ-treated (1 ng/mL) EHTs", "value": "more pronounced effect"}, {"measurement": "passive stiffness of EHTs", "setting": "[3]; both with and without TGFβ (1 ng/mL) treatment, fasudil 1, 3, 10 µM", "value": "effectively reduced"}, {"measurement": "cardiac contractility in EHTs", "setting": "[3]; by day 29, irrespective of TGFβ treatment", "value": "reduced"}, {"measurement": "cardiac contractility in EHTs", "setting": "[3]; [8]", "value": "reduce"}, {"measurement": "passive stiffness in EHTs", "setting": "[3]; [8]", "value": "reduce"}, {"measurement": "impact on cardiac contractility", "setting": "[3]; one day after treatment (data not shown)", "value": "less significant"}, {"measurement": "cardiac contractility in EHTs", "setting": "[4]", "value": "without significantly affecting"}, {"measurement": "passive stiffness in EHTs", "setting": "[4]", "value": "effectively reduced"}, {"measurement": "contractility of tissue constructs", "setting": "[5]", "value": "reduced"}, {"measurement": "tissue stiffness of tissue constructs", "setting": "[5]", "value": "reduced"}, {"measurement": "plasma concentration", "setting": "[6]", "value": "approximately 0.36 μM"}]}
{"compound": "Transforming growth factor beta [TGFβ]", "values": [{"measurement": "passive stiffness of EHTs", "setting": "[3]; 1 ng/mL TGFβ from five days post-fabrication, 0 μM fasudil", "value": "increased"}, {"measurement": "αSM actin expression", "setting": "[1]; TGFβ treated sample, Western blot", "value": "increased expression; also recorded: elevated"}, {"measurement": "cardiac contractility of micro-heart", "setting": "[1]; [9]", "value": "increasing"}, {"measurement": "diastolic stress (stiffening) of micro-heart", "setting": "[1]; [9]", "value": "increasing"}, {"measurement": "ISO-induced positive inotropic and chronotropic responses", "setting": "[1]; chronic TGFβ treatment", "value": "impaired"}]}
